Test: thermogravimetric analysis and differential scanning calorimetry
Assay type: physicochemical
Source text: Bearing in mind that the active pharmaceutical ingredients are often exposed to heat upon a final dosage form manufacturing (e.g., granulation, hot melt-extrusion, and coating), high thermal stability of the compound is a favorable feature predisposing the molecule (R)-32 for a further development. Another property that may considerably slow down the process of bringing a new molecule to the market is limited solubility in water. Thus, a simple approach to verify if it would be possible to overcome this drawback by the physical modification of its crystalline structure was also undertaken. […] The melting endotherm of crystalline (R)-32 had the onset ca. 115 °C and the minimum at 126 °C. After a simple thermal treatment such as cooling of the melt, the amorphous form of (R)-32 was obtained. Its glass transition temperature was relatively low, ca. 30 °C, which means that (R)-32 should be coprocessed with excipients of antiplasticizing properties to develop enabling formulations stable at ambient storage conditions.
A Mettler Toledo thermogravimetric analysis/SDTA 851^e apparatus calibrated with indium, zinc, and aluminum was used. Its accuracy was equal to 10^–6 g. The samples were placed in an open aluminum crucible. The measurements were performed in Ar 5.0 (50 mL/min). The temperature ranged from 25 to 400 °C. The constant heating rate of 10 °C/min was applied. […]

## CC(=O)N[C@@H](C(=O)N1CCN(c2cccc(OC(F)(F)F)c2)CC1)c1ccccc1 [(R)-32, (R)-N-(2-Oxo-1-phenyl-2-(4-(3-(trifluoromethoxy)phenyl)piperazin-1-yl)ethyl)acetamide]
10 °C/min
  thermally stable while heating up to (weight loss noted, TGA): 190 °C
After cooling of the melt
  glass transition temperature of the amorphous form (DSC): ca. 30 °C
